Data taken from patent US9637529B2, “Medicament for atrophy treatment or increasing cell growth” (SIMU TRADE CONSULTING GMBH & CO. LEASING KG, priority 2012, dated 2017).
“Also recorded” adds a separate entry of the source.

Legend:
[1] = test system: zebrafish; test: Zebrafish heart size / heart volume; type: in vivo; conditions: 7 dpf zebrafish incubated with different doses of SERF2
Description: FIG. 13: a: Changes in heart size in 7 dpf old zebrafish incubated with different doses of SERF2. b: Changes in heart volume in 7 dpf old zebrafish incubated in different concentrations of SERF2 and erythropoietin (EPO). Significant differences to control animals are indicated by asterisks.
SERF2 was administered by a) injection of the native protein into the yolk sac of 3 day post fertilization (dpf) animals and freshly fertilized eggs (2-8 cell stage) in various protein concentrations or chronic incubation with the native protein to supply it via diffusion. For in deep analysis of angiogenic effects flk-1 transgenic animals with gfp (green fluorescent protein) labelled endothelium were used. For all other experiments wildtype (wdt) animals were used.
Heart size was determined by measurement of end diastolic dimensions and calculation of end diastolic volume as described by Schwerte et al. (Schwerte et al. The Journal of Experimental Biology. 2003; 206 (Pt 8):1299-1307).

[2] = test system: chorionallantoic membrane (CAM); test: Hen's Egg Test - Chorionallantoic Membrane (HET-CAM) angiogenesis assay; type: in vivo, chicken; conditions: SERF2 3 μg/CAM, VEGF-A 0.5 μg/CAM; treatment on embryonic day 6 and 7; microscopic evaluation, manual count
Description: FIG. 12: Proangiogenic effect of SERF2 in CAM assays. To evaluate the pro-angiogenic properties of SERF2, 3 μg of A: PBS and C: SERF2 was applied per CAM. B: VEGF-A (0.5 μg/CAM) was used as positive control, PBS served as a negative control. […] Treatment was performed on embryonic day 6 and 7. Angiogenic responses were evaluated microscopically. Pictures shown were taken for documentation on day 6.
Fertilized specific-pathogen free eggs (White Leghorn) were obtained from BAXTER Biosciences (Vienna, Austria) on embryonic day 5 (E5). Eggs were disinfected on the surface using a towel soaked with Microzid (Schlilke, Austria). A tiny hole was drilled and 3 ml albumen were removed using a syringe equipped with a 18 G needle. Subsequently, the hole was covered with paraffin. To open the eggs, another hole was drilled on top. The egg shell was removed in this area using a pair of tweezers. […] Angiogenic potential of tested peptides was evaluated microscopically at the end of the experiment.
The HET-CAM assay enables the assessment of the angiogenic potential of substrates or cells. A suitable VEGF concentration was determined, which can be used as positive control. […] Angiogenic response was determined on Ell by light microscopy.
To evaluate the pro-angiogenic properties of SERF2, the protein was subjected to Het-CAM assay. […] Angiogenic responses were evaluated microscopically on E7 as well as on E8. […]

[3] = test system: human T-cell line (Jurkat); test: H2O2-induced apoptosis, trypan-blue staining, Jurkat; type: cell-based; conditions: 200 mM H2O2, SERF2 5 μg/ml, 6 hours, serum-free
Description: Experiments were performed in 6-well plates containing 5 ml cell culture medium (serum-free) per well and were seeded at a cell density of 1*10^6 cells/well and cultured overnight. On the next day 200 mM H2O2 (red bar) or 200 mM H2O2 and SERF2 (green bar; 5 μg/ml) was added to cultures. After 6 hours of incubation, the adherent cells were harvested, washed 3 times in PBS and dead cells were detected by trypan-blue staining using light microscopy. Shown is the percentage of dead cells.
Trypan Blue staining is one of the most commonly used methods to determine the cell viability using light microscopy. Trypan blue can only stain cells if their membrane is damaged.
The question was asked whether SERF2 has an effect on growth factor deprivation- or stress-induced apoptosis. The experimental protocol included addition of Hydrogen peroxide (H2O2), which is known to cause cellular stress and consequently apoptotic death in doses below 200 μM (Cox A., Carcinogenesis. 2007, Vol. 28, 10). Furthermore apoptosis was induced by deprivation of granulocyte macrophage colony-stimulating factor (GM-CSF) in cultures of TF-1 cells. These cells are dependent on the presence of a growth factor which is absolutely necessary for growth and differentiation of TF-1 cells.

## SERF2: Small EDRK-rich factor 2, mature protein of 59 amino acids (SEQ ID NO: 1) (MTRGNQRELARQKNMKKQSDSVKGKRRDDGLSAAARKQRDSEIMQQKQKKANEKKEEPK; homo sapiens)
[1]
  change in heart volume: significant increase of the animals heart volume
[2]
  angiogenic response (newly formed vessels) in CAM: pro-angiogenic response; also recorded: New vessels were identified
[3]
  protection from H2O2-induced apoptosis (percentage of dead cells), Jurkat: markedly reduced apoptosis; also recorded: protects a human T-cell line (Jurkat) from H2O2-induced apoptosis
